“And” between values parts separate entries of the source, which are not always exact repeats. Equal entries are not always repeated.

Drawing on BindingDB's records for doi:10.1111/j.1749-6632.1998.tb10185.x (Albany Medical College, 1998), this text covers Ki for four compounds.

The assay concerns the target T1, 5-hydroxytryptamine receptor 2C (Rattus norvegicus, UniProt P08909).
T1 sequence (P08909 whole entry): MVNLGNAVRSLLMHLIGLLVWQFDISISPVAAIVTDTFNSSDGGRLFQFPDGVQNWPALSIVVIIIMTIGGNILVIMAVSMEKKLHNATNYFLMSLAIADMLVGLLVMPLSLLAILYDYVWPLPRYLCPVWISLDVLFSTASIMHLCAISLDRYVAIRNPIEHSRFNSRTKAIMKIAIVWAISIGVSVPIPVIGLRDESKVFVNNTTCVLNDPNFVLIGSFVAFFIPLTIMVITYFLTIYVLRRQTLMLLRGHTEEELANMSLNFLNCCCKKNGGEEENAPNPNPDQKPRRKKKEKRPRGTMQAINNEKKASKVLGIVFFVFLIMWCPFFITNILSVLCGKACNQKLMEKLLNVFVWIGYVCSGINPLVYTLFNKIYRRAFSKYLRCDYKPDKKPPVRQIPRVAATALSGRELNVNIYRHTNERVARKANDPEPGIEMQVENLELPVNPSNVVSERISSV

The term Ki denotes a measure of affinity in units of concentration, obtained from inhibition or displacement. With `CC[C@@H](CO)NC(=O)[C@@H]1C=C2c3cccc4c3c(cn4C)C[C@H]2N(C)C1`, the inhibition constant Ki was 0.0008 µM and 0.001 µM. With `c1ccc2nc(N3CCNCC3)ccc2c1` [2-Piperazin-1-yl-quinoline (Quipazine)], the inhibition constant (Ki) is 0.16 µM and 1.34 µM. To `O=C(c1ccc(F)cc1)C1CCN(CCn2c(=O)[nH]c3ccccc3c2=O)CC1` [3-(2-{4-[(4-fluorophenyl)carbonyl]piperidin-1-yl}ethyl)-1,2,3,4-tetrahydroquinazoline-2,4-dione] belongs 0.103 µM and 0.094 µM. To `NCCc1c[nH]c2ccc(C(N)=O)cc12` [[3H]-5-carboxamidotryptamine] belongs 5.81 µM.
